Entries after “also recorded” stand apart in the source; their conditions may differ.
How the values were obtained:
[1] = Patient-reported outcomes, pain and inflammation (Relief); type: in vivo, patients; conditions: pain / inflammatory conditions (pain and anxiety)
Excerpt: (§1) Relief includes Base Formulations used in connection with more than one patient suffering from pain and/or inflammatory diseases including neuropathic, and nociceptive pain caused by a range of injuries, arthritis, fibromyalgia, fibrosis, shingles, diabetes, and Lyme disease. Some patients suffering from pain were also suffering from COPD. […] For example, in the Table FIG. 1, Base Formulation TF8 has twice as much terpenes as TF7. […] If a patient was experience pain resulting from an inflammatory condition, such as COPD, then it was not necessary to include THC in the patient's formulations. However, if the patient was suffering from a type of pain such as nociceptive or neuropathic, the use of THC was beneficial. Increasing alpha pinene will be beneficial for patients with COPD.
In addition, even when a patient was reporting good symptom relief, patient dosages were titrated up, including both dosing frequency and dose size, to determine whether better relief could be achieved. […] Thereafter, the HCP would revert the formulation back to the previous dosage and constituent amounts. Treatment then continues forward at that reverted level.
(§2) FIG. 10 is a Pain Management Table, FIG. 11 is an Insomnia Table, FIG. 12 is a Cancer Treatment Support Table, FIG. 13 is an Anxiety, Depression, PTSD Management Table, FIG. 14 is a Chronic Obstructive Pulmonary Disease (COPD) Table, and FIG. 15 is a Irritable Bowel Syndrome Table. These are symptom-specific tables which summarize the pharmaceutical compositions where two or more patients, grouped by specific composition have reported moderate to substantial symptom improvement with the use of the specified composition for periods of use ranging from 1 to 24 months. With respect to the Tables in FIGS. 10-15, the amounts specified in the tables represent the mass in milligrams (mg) per 1.0 milliliter (mL). Dosing protocols vary and may involve a dosing volume ranging from 0.1 ml to 1 ml with a frequency of once, twice or three times a day (QD, BID, or TID, respectively), and in some cases used on an as-needed basis.

[2] = Patient-reported outcomes, gastrointestinal disorders (Wisdom); type: in vivo, patients; conditions: 15-100 mg/mL added
Excerpt: Studies have shown that the Wisdom BASE formulations relieve symptoms associated with gastrointestinal disorders, such as IBS and others.
as §2

[3] = Patient-reported side effects and tolerability
[4] = Patient-reported outcomes, insomnia and sleep (Rest); type: in vivo, patients; conditions: THC small amount (0.25-10 mg/ml); terpenes increased by 0.25-3.5 mg/mL
Excerpt: as §2

[5] = Patient-reported outcomes, COPD; type: in vivo; conditions: patients suffering from COPD
Excerpt: as §1
(§3) FIG. 10 is a Pain Management Table, FIG. 11 is an Insomnia Table, FIG. 12 is a Cancer Treatment Support Table, FIG. 13 is an Anxiety, Depression, PTSD Management Table, FIG. 14 is a Chronic Obstructive Pulmonary Disease (COPD) Table, and FIG. 15 is a Irritable Bowel Syndrome Table. These are symptom-specific tables which summarize the pharmaceutical compositions where two or more patients, grouped by specific composition have reported moderate to substantial symptom improvement with the use of the specified composition for periods of use ranging from 1 to 24 months. […]

[6] = Patient-reported outcomes, anxiety, depression, PTSD (Calm / Serenity); type: in vivo, patients; conditions: people with anxiety
Excerpt: FIGS. 2 and 3 show Oblend® Treatment Family (Oblend Tx) Calm formulations and Oblend Tx Serenity formulations. These tables include base formulations (BASE) for subjects suffering from anxiety, depression, and PTSD. The BASE Formulation is selected from Calm or Serenity Tables based on the subject's symptoms.
Some patients respond well to LIM and LOL while others respond better to more sedative terpenes like MYR and TPN. In most cases, patients with anxiety respond well to Calm Tx formulations. […] If a patient suffering from anxiety initially began treatment with the Calm Base and experienced some symptom relief, then, this patient continued taking Calm formulations from Calm or a personalized formulation with a similar terpene profile as Calm.
as §3

## CCCCCc1cc(O)c2c(c1)OC(C)(CCC=C(C)C)C=C2 (stereo not shown) [CBC, Cannabichromene]
[1]
  patient outcomes on adding the ingredient to the formulation: in some cases, patients reported a reduction in symptoms; also recorded: favorable patient outcomes improved dramatically

## C=C(C)[C@@H]1CCC(C)=C[C@H]1c1c(O)cc(CCCCC)cc1O [CBD, Cannabidiol]
[2]
  gastrointestinal symptom relief on adding the ingredient: improved symptom relief

## CCCCCc1cc(O)c(C/C=C(\C)CCC=C(C)C)c(O)c1 [CBG, Cannabigerol]
[1]
  patient outcomes on adding the ingredient to the formulation: some patients reported a reduction in symptoms; also recorded: favorable patient outcomes increased

## CCCCCc1cc(O)c2c(c1)OC(C)(C)c1ccc(C)cc1-2 [CBN, Cannabinol]
[1]
  patient outcomes on adding the ingredient to the formulation: favorable patient outcomes increased

## CCCCCc1cc(O)c2c(c1)OC(C)(C)C1CC=C(C)CC21 (stereo not shown) [Delta-8, delta-8-tetrahydrocannabinol]
[3]; according to most patients
  side-effects compared with Delta-9 THC: fewer side-effects

## CCCCCc1cc(O)c2c(c1)OC(C)(C)[C@@H]1CCC(C)=C[C@@H]21 [THC, Tetrahydrocannabinol, reference compound]
[4]
  sleep on adding or increasing the ingredient: patients were able to fall asleep; also recorded: improves sleep
[1]
  patient outcomes on adding the ingredient to the formulation: improved pain relief

## CC1=CCC2CC1C2(C)C (stereo not drawn) [alpha-pinene, Alpha Pinene]
[5]
  COPD outcomes on increasing the terpene: significantly improved outcomes

## C=C1CC/C=C(\C)CC[C@@H]2[C@@H]1CC2(C)C [beta Caryophyllene, Beta Caryophyllene]
[5]
  COPD outcomes on increasing the terpene: significantly improved outcomes
[1]
  patient outcomes on adding the ingredient to the formulation: significant improvement in symptom relief; also recorded: increased patient outcomes

## C=C(C)[C@H]1CC=C(C)CC1 [limonene, Limonene]
[6]
  anxiety response to the terpene: make some people more anxious

## C=CC(C)(O)CCC=C(C)C (stereo not shown) [linalool, Linalool]
[4]
  sleep on adding or increasing the ingredient: improves sleep

## C=CC(=C)CCC=C(C)C [myrcene, Myrcene]
[4]
  sleep on adding or increasing the ingredient: increased the duration and quality of sleep; also recorded: improves sleep

## C=CC(C)(O)CCC=C(C)CCC=C(C)C (stereo not shown) [nerolidol, Nerolidol]
[4]
  sleep on adding or increasing the ingredient: increased the duration and quality of sleep
[3]; ingredient of most formulations
  allergy: some patients are allergic

## CC1=CCC(=C(C)C)CC1 [terpinolene, Terpinolene]
[4]
  sleep on adding or increasing the ingredient: increased the duration and quality of sleep; also recorded: improves sleep
